From paper PMC9516332 (Frontiers in Oncology, 2022)
Read-outs that look alike come from different tables or passages of the source.

Key:
134 cancer cell lines = assay: Cell viability assay (ATPlite, 72 hours), IC50 on cancer cell line panel
[1] = biological target: panel of 255 wild-type kinases (Homo sapiens, UniProt Q16816); assay: Kinase panel profiling at 1 µmol/L (MSA or IMAP), percentage inhibition; assay type: biochemical; details: kinase PHKG1; 1 µmol/L single concentration; read-out: %-inhibition at 1 µmol/L, PHKG1
[2] = biological target: panel of 255 wild-type kinases (Homo sapiens, UniProt P06241); assay: as above; assay type: biochemical; details: kinase FYN [isoform a]; 1 µmol/L single concentration; read-out: %-inhibition at 1 µmol/L, FYN [isoform a]
[3] = biological target: panel of 255 wild-type kinases (Homo sapiens, UniProt Q13882); assay: as above; assay type: biochemical; details: BRK kinase assay; 1 µmol/L single concentration; read-out: %-inhibition BRK
[4] = biological target: panel of 255 wild-type kinases (Homo sapiens, UniProt Q9H422); assay: as above; assay type: biochemical; details: kinase HIPK3; 1 µmol/L single concentration; read-out: %-inhibition at 1 µmol/L, HIPK3
AP-1060 (ETV6-NTRK3) = assay: Cell viability assay; details: read-out: IC50 in cell proliferation assay

SMILES: CN1CCN(c2ccc(C(=O)Nc3n[nH]c4ccc(Cc5cc(F)cc(F)c5)cc34)c(NC3CCOCC3)c2)CC1 [entrectinib]
- IC50 (134 cancer cell lines; Homo sapiens, NCCIT, read-out: IC50 in cell proliferation assay, NCC-IT cell line): 6.38 µM
- IC50 (134 cancer cell lines; Homo sapiens, NCI-H82, read-out: IC50 in cell proliferation assay, cell line NCI-H82): 9.7 µM
- IC50 (134 cancer cell lines; Homo sapiens, NCI-H460, read-out: IC50 in cell proliferation assay, NCI-H460 cell line): 9.99 µM
- IC50 (134 cancer cell lines; Homo sapiens, NCI-H661, read-out: IC50 in cell proliferation assay, NCI-H661 cell line): 4.03 µM
- IC50 (134 cancer cell lines; Homo sapiens, NCI-H716, read-out: IC50 in cell proliferation assay, cell line NCI-H716 (FGFR2-COL14A1)): 1.46 µM
- IC50 (134 cancer cell lines; Homo sapiens, NCI-H1650, read-out: IC50 in cell proliferation assay, NCI-H1650 cell line (EGFR exon19del)): 2.44 µM
- IC50 (134 cancer cell lines; Homo sapiens, NCI-H1975, read-out: IC50 in cell proliferation assay, NCI-H1975 cell line (EGFR p.L858R + p.T790M)): 4.15 µM
- IC50 (134 cancer cell lines; Homo sapiens, NCI-H2228, read-out: IC50 in cell proliferation assay, NCI-H2228 cell line (EML4-ALK)): 0.196 µM
- IC50 (134 cancer cell lines; Homo sapiens, OVCAR-3, read-out: IC50 in cell proliferation assay, cell line OVCAR-3): 8.35 µM
- IC50 (134 cancer cell lines; Homo sapiens, PFSK-1, read-out: IC50 in cell proliferation assay, cell line PFSK-1): 7.82 µM
- IC50 (134 cancer cell lines; Homo sapiens, RL95-2, read-out: IC50 in cell proliferation assay, cell line RL95-2 (EGFR p.A289V)): 3.32 µM
- IC50 (134 cancer cell lines; Homo sapiens, RPMI-7951, read-out: IC50 in cell proliferation assay, cell line RPMI-7951 (BRAF p.V600E)): 4.02 µM
- IC50 (134 cancer cell lines; Homo sapiens, RS4-11, read-out: IC50 in cell proliferation assay, cell line RS4;11): 8.24 µM
- IC50 (134 cancer cell lines; Homo sapiens, Rec1, read-out: IC50 in cell proliferation assay, cell line REC-1): 5.02 µM
- IC50 (134 cancer cell lines; Homo sapiens, SHP77, read-out: IC50 in cell proliferation assay, cell line SHP-77): 12.7 µM
- IC50 (134 cancer cell lines; Homo sapiens, SK-BR-3, read-out: IC50 in cell proliferation assay, cell line SK-BR-3 (ERBB2 amplification)): 11.1 µM
- IC50 (134 cancer cell lines; Homo sapiens, SK-N-AS, read-out: IC50 in cell proliferation assay, cell line SK-N-AS): 5.34 µM
- IC50 (134 cancer cell lines; Homo sapiens, SK-N-FI, read-out: IC50 in cell proliferation assay, cell line SK-N-FI): 4.06 µM
- IC50 (134 cancer cell lines; Homo sapiens, SK-N-MC, read-out: IC50 in cell proliferation assay, cell line SK-N-MC): 4.62 µM
- IC50 (134 cancer cell lines; Homo sapiens, SK-N-SH, read-out: IC50 in cell proliferation assay, cell line SK-N-SH (ALK p.F1174L)): 2.8 µM
- IC50 (134 cancer cell lines; Homo sapiens, SNU-5, read-out: IC50 in cell proliferation assay, cell line SNU-5 (MET amplification)): 9.58 µM
- IC50 (134 cancer cell lines; Homo sapiens, SNU-16, read-out: IC50 in cell proliferation assay, cell line SNU-16 (FGFR2 amplification)): 2.13 µM
- IC50 (134 cancer cell lines; Homo sapiens, SNU-C2B, read-out: IC50 in cell proliferation assay, cell line SNU-C2B (EGFR p.R165Q)): 8.12 µM
- IC50 (134 cancer cell lines; Homo sapiens, SU-DHL-1, read-out: IC50 in cell proliferation assay, cell line SU-DHL-1 (NPM1-ALK)): 0.607 µM
- IC50 (134 cancer cell lines; Homo sapiens, SU-DHL-6, read-out: IC50 in cell proliferation assay, cell line SU-DHL-6): 7.74 µM
- IC50 (134 cancer cell lines; Homo sapiens, SUP-T1, read-out: IC50 in cell proliferation assay, cell line SUP-T1): 11 µM
- IC50 (134 cancer cell lines; Homo sapiens, SW48, read-out: IC50 in cell proliferation assay, cell line SW48 (EGFR p.G719S)): 5.31 µM
- IC50 (134 cancer cell lines; Homo sapiens, SW480, read-out: IC50 in cell proliferation assay, cell line SW480): 6.93 µM
- IC50 (134 cancer cell lines; Homo sapiens, SW626, read-out: IC50 in cell proliferation assay, cell line SW626): 7.38 µM
- IC50 (134 cancer cell lines; Homo sapiens, SW780, read-out: IC50 in cell proliferation assay, cell line SW780 (FGFR3-BAIAP2L1)): 2.85 µM
- IC50 (134 cancer cell lines; Homo sapiens, SW837, read-out: IC50 in cell proliferation assay, cell line SW837): 8.38 µM
- IC50 (134 cancer cell lines; Homo sapiens, SW872, read-out: IC50 in cell proliferation assay, cell line SW872 (BRAF p.V600E)): 6.09 µM
- IC50 (134 cancer cell lines; Homo sapiens, SW900, read-out: IC50 in cell proliferation assay, cell line SW900): 6.64 µM
- IC50 (134 cancer cell lines; Homo sapiens, SW948, read-out: IC50 in cell proliferation assay, cell line SW948): 9.44 µM
- IC50 (134 cancer cell lines; Homo sapiens, SW982, read-out: IC50 in cell proliferation assay, cell line SW982 (BRAF p.V600E)): 5.31 µM
- IC50 (134 cancer cell lines; Homo sapiens, SW-620, read-out: IC50 in cell proliferation assay, cell line SW620): 6.33 µM
- IC50 (134 cancer cell lines; Homo sapiens, T98G, read-out: IC50 in cell proliferation assay, cell line T98G): 5.59 µM
- IC50 (134 cancer cell lines; Homo sapiens, TCC-SUP, read-out: IC50 in cell proliferation assay, cell line TCCSUP): 6.42 µM
- IC50 (134 cancer cell lines; Homo sapiens, THP-1, read-out: IC50 in cell proliferation assay, cell line THP-1): 12.9 µM
- IC50 (134 cancer cell lines; Homo sapiens, U2OS, read-out: IC50 in cell proliferation assay, cell line U2OS): 4.45 µM
- IC50 (134 cancer cell lines; Homo sapiens, U-87 MG, read-out: IC50 in cell proliferation assay, cell line U-87MG ATCC): 7.08 µM
- IC50 (134 cancer cell lines; Homo sapiens, U-118-MG, read-out: IC50 in cell proliferation assay, cell line U-118MG): 6.88 µM
- IC50 (134 cancer cell lines; Homo sapiens, UMUC3, read-out: IC50 in cell proliferation assay, cell line UM-UC-3): 6.87 µM
- IC50 (134 cancer cell lines; Hs766T, read-out: IC50 in cell proliferation assay, Hs 766T cell line): 7.08 µM
- IC50 (134 cancer cell lines; L-82, read-out: IC50 in cell proliferation assay, L-82 cell line (NPM1-ALK)): 0.125 µM
- IC50 (134 cancer cell lines; Rh30, read-out: IC50 in cell proliferation assay, cell line Rh30): 4.64 µM
- IC50 (134 cancer cell lines; read-out: IC50 in cell proliferation assay, 11-18 cell line (EGFR p.L858R)): 4.17 µM
- IC50 (134 cancer cell lines; read-out: IC50 in cell proliferation assay, Hs 852.T cell line): 4.09 µM
- IC50 (134 cancer cell lines; read-out: IC50 in cell proliferation assay, JAR cell line): 5.04 µM
- IC50 (134 cancer cell lines; read-out: IC50 in cell proliferation assay, cell line 5637): 5.56 µM
- IC50 (134 cancer cell lines; read-out: IC50 in cell proliferation assay, cell line A-388): 10.3 µM
- IC50 (134 cancer cell lines; read-out: IC50 in cell proliferation assay, cell line DB): 10.5 µM
- IC50 (134 cancer cell lines; read-out: IC50 in cell proliferation assay, cell line DEL (NPM1-ALK)): 0.216 µM
- IC50 (134 cancer cell lines; read-out: IC50 in cell proliferation assay, cell line ES-2 (BRAF p.V600E)): 4.86 µM
- IC50 (134 cancer cell lines; read-out: IC50 in cell proliferation assay, cell line PA-1): 3.03 µM
- IC50 (134 cancer cell lines; read-out: IC50 in cell proliferation assay, cell line PC-3): 11 µM
- IC50 (134 cancer cell lines; read-out: IC50 in cell proliferation assay, cell line RD): 5.09 µM
- IC50 (134 cancer cell lines; read-out: IC50 in cell proliferation assay, cell line RKO (BRAF p.V600E)): 4.68 µM
- IC50 (134 cancer cell lines; read-out: IC50 in cell proliferation assay, cell line RL): 10.9 µM
- IC50 (134 cancer cell lines; read-out: IC50 in cell proliferation assay, cell line RT-4 (FGFR3-TACC3)): 2.94 µM
- IC50 (134 cancer cell lines; read-out: IC50 in cell proliferation assay, cell line SR (NPM1-ALK)): 0.72 µM
- IC50 (134 cancer cell lines; read-out: IC50 in cell proliferation assay, cell line T24): 7.12 µM
- IC50 (134 cancer cell lines; read-out: IC50 in cell proliferation assay, cell line TT (RET p.C634W)): 9.26 µM
- IC50 (134 cancer cell lines; read-out: IC50 in cell proliferation assay, cell line VA-ES-BJ): 6.41 µM
- inhibition at 1 µM [1]: 54%
- inhibition at 1 µM [2]: 96%
- inhibition at 1 µM [3]: 88%
- inhibition at 1 µM [4]: 5%
- IC50 (AP-1060 (ETV6-NTRK3)): 35 nM
